Measured values as given in ChEMBL document CHEMBL1151469, “Cytotoxic activity of N-chlorotaurine on Acanthamoeba spp” (Antimicrob Agents Chemother, 2008).
The source made the active and inactive calls. The rule behind the calls is not given here.

What was measured:
Acanthamoeba polyphaga [1] = assay: Amoebicidal activity against Trophozoites of Acanthamoeba polyphaga 5SU assessed as rounding of cells at 55 mM in phosphate buffered saline at pH 7 after 15 mins by hemocytometer using trypan blue stain in presence of 190 mM ammonium chloride; format: functional, organism-based
Acanthamoeba hatchetti [2] = assay: Amoebicidal activity against Trophozoites of Acanthamoeba hatchetti 11DS at 55 mM in phosphate buffered saline at pH 7 after 1 hr by hemocytometer using trypan blue staining in presence of 190 mM ammonium chloride; format: functional, organism-based
Acanthamoeba polyphaga [3] = assay: Amoebicidal activity against Trophozoites of Acanthamoeba polyphaga 5SU assessed as rounding of the cells at 55 mM in peptone yeast extract glucose medium at pH 7 after 30 mins by hemocytometer using trypan blue stain; format: functional, organism-based
Acanthamoeba hatchetti [4] = assay: Amoebicidal activity against Trophozoites of Acanthamoeba hatchetti 11DS assessed as killing time at 55 mM in peptone yeast extract glucose medium at pH 7 by hemocytometer using trypan blue stain; format: functional
Acanthamoeba hatchetti [5] = assay: Amoebicidal activity against Trophozoites of Acanthamoeba hatchetti 11DS assessed as reduction of killing time at 10 mM in phosphate buffered saline at pH 5 by hemocytometer using trypan blue stain in presence of 160 mM beta-alanine; format: functional
Acanthamoeba hatchetti [6] = assay: Amoebicidal activity against Trophozoites of Acanthamoeba hatchetti 11DS assessed as log reduction in cell count at 10 mM in phosphate buffered saline at pH 5 within 1 hr by hemocytometer using trypan blue stain in presence of 290 mM ammonium chloride; format: functional
Acanthamoeba polyphaga [7] = assay: Amoebicidal activity against Trophozoites of Acanthamoeba polyphaga 5SU assessed as killing time at 55 mM in peptone yeast extract glucose medium at pH 7 by hemocytometer using trypan blue stain; format: functional
Acanthamoeba hatchetti [8] = assay: Amoebicidal activity against Trophozoites of Acanthamoeba hatchetti 11DS assessed as complete killing time at 55 mM in phosphate buffered saline at pH 7 after 3 hrs by hemocytometer using trypan blue stain in presence of 190 mM ammonium chloride; format: functional, organism-based
Acanthamoeba hatchetti [9] = assay: Amoebicidal activity against Trophozoites of Acanthamoeba hatchetti 11DS assessed as killing time at 10 mM in phosphate buffered saline at pH 7 by hemocytometer using trypan blue stain; format: functional
Acanthamoeba castellanii [10] = assay: Amoebicidal activity against Trophozoites of Acanthamoeba castellanii 4CL assessed as killing time at 10 mM in phosphate buffered saline at pH 7 by hemocytometer using trypan blue stain; format: functional
Acanthamoeba castellanii [11] = assay: Amoebicidal activity against Trophozoites of Acanthamoeba castellanii 40AB assessed as killing time at 10 mM in phosphate buffered saline at pH 7 by hemocytometer using trypan blue stain; format: functional
Acanthamoeba polyphaga [12] = assay: Amoebicidal activity against Trophozoites of Acanthamoeba polyphaga 5SU assessed as reduction killing time at 55 mM in phosphate buffered saline at pH 7 by hemocytometer using trypan blue stain; format: functional, organism-based
Acanthamoeba hatchetti [13] = assay: Amoebicidal activity against Trophozoites of Acanthamoeba hatchetti 11DS assessed as log reduction in cell count at 10 mM in phosphate buffered saline after 24 hrs by hemocytometer using trypan blue staining; format: functional, organism-based
Acanthamoeba polyphaga [14] = assay: Amoebicidal activity against Trophozoites of Acanthamoeba polyphaga 5SU assessed as rounding of cells at 55 mM in phosphate buffered saline at pH 7 after 15 mins by hemocytometer using trypan blue stain; format: functional, organism-based
Acanthamoeba hatchetti [15] = assay: Amoebicidal activity against Trophozoites of Acanthamoeba hatchetti 11DS assessed as increase in reduction in cell count at 20 mM in peptone yeast extract glucose medium at pH 7 after 6 hrs by hemocytometer using trypan blue stain in presence of 68 mM ammonium chloride; format: functional, organism-based
Acanthamoeba polyphaga [16] = assay: Amoebicidal activity against Trophozoites of Acanthamoeba polyphaga 5SU assessed as increase in reduction in cell count at 20 mM in peptone yeast extract glucose medium at pH 7 after 6 hrs by hemocytometer using trypan blue stain in presence of 68 mM ammonium chloride; format: functional, organism-based
Acanthamoeba hatchetti [17] = assay: Amoebicidal activity against Trophozoites of Acanthamoeba hatchetti 11DS in phosphate buffered saline at pH 7 after 1 hr by hemocytometer using trypan blue stain in presence of 34 mM ammonium chloride; format: functional, organism-based
Acanthamoeba hatchetti [18] = assay: Amoebicidal activity against Trophozoites of Acanthamoeba hatchetti 11DS in peptone yeast extract glucose medium at pH 7 after 1 hr by hemocytometer using trypan blue stain; format: functional, organism-based
Acanthamoeba polyphaga [19] = assay: Amoebicidal activity against Trophozoites of Acanthamoeba polyphaga 5SU in phosphate buffered saline at pH 7 after 1 hr by hemocytometer using trypan blue stain in presence of 34 mM ammonium chloride; format: functional, organism-based
Acanthamoeba polyphaga [20] = assay: Amoebicidal activity against Trophozoites of Acanthamoeba polyphaga 5SU in peptone yeast extract glucose medium at pH 7 after 1 hr by hemocytometer using trypan blue stain in presence of 68 mM ammonium chloride; format: functional, organism-based
Acanthamoeba hatchetti [21] = assay: Amoebicidal activity against Trophozoites of Acanthamoeba hatchetti 11DS in phosphate buffered saline at pH 7 after 6 hrs by hemocytometer using trypan blue stain in presence of 34 mM ammonium chloride; format: functional, organism-based
Acanthamoeba polyphaga [22] = assay: Amoebicidal activity against Trophozoites of Acanthamoeba polyphaga 5SU in phosphate buffered saline at pH 7 after 6 hrs by hemocytometer using trypan blue stain in presence of 34 mM ammonium chloride; format: functional, organism-based
Acanthamoeba polyphaga [23] = assay: Amoebicidal activity against Trophozoites of Acanthamoeba polyphaga 5SU in peptone yeast extract glucose medium at pH 7 after 6 hrs by hemocytometer using trypan blue stain in presence of 68 mM ammonium chloride; format: functional, organism-based
Acanthamoeba hatchetti [24] = assay: Amoebicidal activity against Trophozoites of Acanthamoeba hatchetti 11DS in phosphate buffered saline at pH 7 after 24 hrs by hemocytometer using trypan blue stain in presence of 34 mM ammonium chloride; format: functional, organism-based
Acanthamoeba hatchetti [25] = assay: Amoebicidal activity against Trophozoites of Acanthamoeba hatchetti 11DS in peptone yeast extract glucose medium at pH 7 after 24 hrs by hemocytometer using trypan blue stain; format: functional, organism-based
Acanthamoeba hatchetti [26] = assay: Amoebicidal activity against Trophozoites of Acanthamoeba hatchetti 11DS in peptone yeast extract glucose medium at pH 7 after 24 hrs by hemocytometer using trypan blue stain in presence of 68 mM ammonium chloride; format: functional, organism-based
Acanthamoeba castellanii [27] = assay: Amoebicidal activity against excysted trophozoites of Acanthamoeba castellanii 4CL at 55 mM in peptone yeast extract glucose medium after 24 hrs by hemocytometer using trypan blue stain; format: functional
Acanthamoeba castellanii [28] = assay: Amoebicidal activity against excysted trophozoites of Acanthamoeba castellanii 40AB at 55 mM in peptone yeast extract glucose medium after 24 hrs by hemocytometer using trypan blue stain; format: functional
Acanthamoeba castellanii [29] = assay: Amoebicidal activity against excysted trophozoites of Acanthamoeba castellanii 40AB at 55 mM in peptone yeast extract glucose medium after 6 days by hemocytometer using trypan blue stain; format: functional
Acanthamoeba hatchetti [30] = assay: Amoebicidal activity against excysted trophozoites of Acanthamoeba hatchetti 11DS at 55 mM in peptone yeast extract glucose medium after 6 days by hemocytometer using trypan blue stain; format: functional
Acanthamoeba hatchetti [31] = assay: Amoebicidal activity against excysted trophozoites of Acanthamoeba hatchetti 11DS at 55 mM in peptone yeast extract glucose medium after 11 days by hemocytometer using trypan blue stain; format: functional
Acanthamoeba polyphaga [32] = assay: Amoebicidal activity against excysted trophozoites of Acanthamoeba polyphaga 5SU at 55 mM in peptone yeast extract glucose medium after 11 days by hemocytometer using trypan blue stain; format: functional
Acanthamoeba hatchetti [33] = assay: Amoebicidal activity against Trophozoites of Acanthamoeba hatchetti 11DS assessed as complete loss of viability at 55 mM in phosphate buffered saline incubated in xenic agar medium after 14 days by hemocytometer using trypan blue stain in presence of 190 mM ammonium chloride; format: functional, organism-based

For `O=S(=O)(O)CCNCl`, the Activity (Acanthamoeba polyphaga [1]) was “Active”, the Activity (Acanthamoeba hatchetti [2]) was “inactive” and the Activity (Acanthamoeba polyphaga [3]) was “Active”. For the same compound, the Activity (Acanthamoeba hatchetti [4]) was 3 h, the Activity (Acanthamoeba hatchetti [5]) was 15 h and the Activity (Acanthamoeba hatchetti [6]) was 2. For the same compound, the Activity (Acanthamoeba polyphaga [7]) was 3 h, the Activity (Acanthamoeba hatchetti [8]) was “Active” and the Activity (Acanthamoeba hatchetti [9]) was 30 h. The Activity (Acanthamoeba castellanii [10]) was 36 h, the Activity (Acanthamoeba castellanii [11]) was 30 h and the Activity (Acanthamoeba polyphaga [12]) was “Active”. For the same compound, the Activity (Acanthamoeba hatchetti [13]) was “Active”, the Activity (Acanthamoeba polyphaga [14]) was “Active” and the Activity (Acanthamoeba hatchetti [15]) was “Active”. For the same compound, the Activity (Acanthamoeba polyphaga [16]) was “inactive”, the EC50 (Acanthamoeba hatchetti [17]) was 12.9 mM and the EC50 (Acanthamoeba hatchetti [18]) was 10.1 mM. For the same compound, the EC50 (Acanthamoeba polyphaga [19]) was 5.31 mM, the EC90 (Acanthamoeba polyphaga [19]) was 9.5 mM and the EC50 (Acanthamoeba polyphaga [20]) was 16.6 mM. It also gave an EC50 (Acanthamoeba hatchetti [21]) of 5.19 mM, an EC90 (Acanthamoeba hatchetti [21]) of 9.13 mM and an EC50 (Acanthamoeba polyphaga [22]) of 5 mM. The EC90 (Acanthamoeba polyphaga [22]) was 9.08 mM, the EC50 (Acanthamoeba polyphaga [23]) was 12.9 mM and the EC50 (Acanthamoeba hatchetti [24]) was 5.11 mM. For the same compound, the EC90 (Acanthamoeba hatchetti [24]) was 9.13 mM, the EC50 (Acanthamoeba hatchetti [25]) was 7.38 mM and the EC50 (Acanthamoeba hatchetti [26]) was 10.2 mM. For the same compound, the Activity (Acanthamoeba castellanii [27]) was 0, the Activity (Acanthamoeba castellanii [28]) was 0 and the Activity (Acanthamoeba castellanii [29]) was 38000. The Activity (Acanthamoeba hatchetti [30]) was 210000, the Activity (Acanthamoeba hatchetti [31]) was 410000 and the Activity (Acanthamoeba polyphaga [32]) was 200000. The Activity (Acanthamoeba hatchetti [33]) was “inactive”.
